According to patent EP4144838A1, “ORGANISMS PRODUCING LESS CROTONIC ACID” (Global Bioenergies, priority 2021, dated 2023):

Tests used:
[1] = tested on: TaFdcV; assay: Cycloadduct formation with TaFdcV followed by UV-Vis spectroscopy; type: binding, Trichoderma atroviride; settings: for adduct formation / binding, reversibility after desalting: UV-Vis spectrum before and after a desalting step
[2] = molecular target: E. coli deoxyribose-phosphate aldolase (Escherichia coli, UniProt P0A6L0); settings: Racker et al. 1951; Jennewein et al. 2006; cited from earlier work
[3] = tested on: TaFdc; assay: Adduct formation with TaFdc wild-type followed by UV-Vis spectroscopy; settings: UV-Vis spectrum before and after a desalting step

Chain of E. coli deoxyribose-phosphate aldolase (P0A6L0 whole entry): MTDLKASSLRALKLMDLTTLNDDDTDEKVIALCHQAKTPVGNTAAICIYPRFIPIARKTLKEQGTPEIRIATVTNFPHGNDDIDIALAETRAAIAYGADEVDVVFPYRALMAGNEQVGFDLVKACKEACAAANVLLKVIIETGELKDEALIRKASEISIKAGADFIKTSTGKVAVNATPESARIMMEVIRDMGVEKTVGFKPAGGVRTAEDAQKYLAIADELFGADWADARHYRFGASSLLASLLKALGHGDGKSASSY

| Compound | adduct formation / binding, reversibility after desalting [1] | inhibition of E. coli deoxyribose-phosphate aldolase [2] | further results |
| --- | --- | --- | --- |
| C/C=C/C(=O)O [crotonic acid] | a covalent inhibitory adduct is formed | – | inhibition of the enzyme ferulic acid decarboxylase (FDC) ([1]; FDC variant evolved to decarboxylate 3-methylcrotonic acid, FIG.2): irreversible inhibitor |
| NO [hydroxylamine] | – | inhibit | – |
| OC(O)C(Cl)(Cl)Cl [chloral hydrate] | – | inhibit | – |
| CCCCCCCCO [octanol] | – | inhibit | – |
| O=CCCl [chloroacetaldehyde] | – | efficiently inhibit | – |
| pentenoic acid | irreversibly binds | – | adduct formation / binding, reversibility after desalting [3]: irreversibly binds |
| CC#CC(=O)O [2-butynoic acid] | a covalent inhibitory adduct is formed | – | – |
| CCC=O [propionaldehyde] | – | inhibit | – |
| CCC/C=C/C(=O)O [hexenoic acid, trans-2-hexenoic acid] | irreversibly binds | – | adduct formation / binding, reversibility after desalting [3]: irreversibly binds |
